Laboratory results published in patent publication US5698444A (Eli Lilly and Company, priority 1993, dated 1997).
pIC50: −log10 of the molar value. Where two headings read alike, the source gives them in different places.

Molecular target: T1, human 5-HT2B receptor (Homo sapiens, UniProt P41595)
T1 construct: expressed in transfected cells
Test: competition assay: inhibition of binding of [3H]5-hydroxytryptamine to the cloned human 5-HT2B receptor (cell membranes)

T1 sequence (P41595 whole entry): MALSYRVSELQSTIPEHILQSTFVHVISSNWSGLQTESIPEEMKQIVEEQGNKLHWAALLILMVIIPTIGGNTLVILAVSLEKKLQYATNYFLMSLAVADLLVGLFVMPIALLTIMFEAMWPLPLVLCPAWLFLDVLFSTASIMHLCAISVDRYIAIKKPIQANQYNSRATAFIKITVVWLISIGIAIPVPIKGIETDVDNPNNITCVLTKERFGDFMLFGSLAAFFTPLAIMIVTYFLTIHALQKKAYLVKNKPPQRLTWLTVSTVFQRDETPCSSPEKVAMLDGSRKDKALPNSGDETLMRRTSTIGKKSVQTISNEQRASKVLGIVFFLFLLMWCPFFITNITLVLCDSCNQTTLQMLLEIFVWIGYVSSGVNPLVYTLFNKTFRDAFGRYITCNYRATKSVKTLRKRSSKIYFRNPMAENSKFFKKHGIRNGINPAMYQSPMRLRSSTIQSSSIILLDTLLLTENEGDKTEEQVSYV

## c1ccc2c(N3CCNCC3)cccc2c1 [1-(1-naphthyl)piperazine, 1-(1-Naphthyl)piperazine]
  pIC50: 8.62

## O=C(CCCN1CCC2(CC1)C(=O)NCN2c1ccccc1)c1ccc(F)cc1 [spiperone, 8-[4-(4-fluorophenyl)4-oxobutyl]-1-phenyl-1,3,8-triazaspiro[4,5]decan-4-one]
read-out: IC50 (concentration which displaces or inhibits the binding of 50% of the labeled 5-hydroxytryptamine)
  pIC50: 6.16

## CC(N)Cc1c[nH]c2ccc(O)cc12 (stereo not drawn) [α-methyl-5-hydroxytryptamine, 3-(2-aminopropyl)-1H-indol-5-ol]
  pIC50: 7.93
